In one assay the target is T1, Tyrosine-protein kinase BTK (Homo sapiens, UniProt Q06187). Nature of the assay: Cellular Assay: Alternatively, the present compounds might also be assessed for their capacity to inhibit Btk-dependent FcG receptor-induced IL-8 secretion in human cells. The human myeloid leukemia THP1 cell line (ATCC TIB202) was grown in RPMI 1640 medium supplemented with 10% FCS and 15 nM 1, 25-dihydroxy Vitamin D3 during 4 days before use to induced myeloid differentiation. A sufficient number of tissue-culture grade 384-well plates was coated with human IgG of unknown specificity by incubating overnight at 4° C. with 40 ul/well of a 50 ug/ml IgG solution in PBS. On the day of the experiment, plates were washed 5 times with 80 ul water on a Molecular Devices Aquamax DW4 plate washer. Solutions of the test compounds in 90% DMSO were added to each well on a Hamilton Microlab Star liquid handling station to 40 ul/well tissue culture medium and the total DMSO concentration was adjusted to 0.1%. Differentiated THP1 cells were then added in 40 ul/well to reach a final density of 5'000 cells/well in 80 ul culture medium. After 24 hours, IL-8 secretion was measured in the supernatant by the IL-8 HTRF assay following the protocol of the vendor (CisBio international). Format: cell-based, THP-1. (In general: Time-resolved FRET reads energy transfer from a long-lived donor to a nearby acceptor.)
T1 sequence (Q06187 whole entry): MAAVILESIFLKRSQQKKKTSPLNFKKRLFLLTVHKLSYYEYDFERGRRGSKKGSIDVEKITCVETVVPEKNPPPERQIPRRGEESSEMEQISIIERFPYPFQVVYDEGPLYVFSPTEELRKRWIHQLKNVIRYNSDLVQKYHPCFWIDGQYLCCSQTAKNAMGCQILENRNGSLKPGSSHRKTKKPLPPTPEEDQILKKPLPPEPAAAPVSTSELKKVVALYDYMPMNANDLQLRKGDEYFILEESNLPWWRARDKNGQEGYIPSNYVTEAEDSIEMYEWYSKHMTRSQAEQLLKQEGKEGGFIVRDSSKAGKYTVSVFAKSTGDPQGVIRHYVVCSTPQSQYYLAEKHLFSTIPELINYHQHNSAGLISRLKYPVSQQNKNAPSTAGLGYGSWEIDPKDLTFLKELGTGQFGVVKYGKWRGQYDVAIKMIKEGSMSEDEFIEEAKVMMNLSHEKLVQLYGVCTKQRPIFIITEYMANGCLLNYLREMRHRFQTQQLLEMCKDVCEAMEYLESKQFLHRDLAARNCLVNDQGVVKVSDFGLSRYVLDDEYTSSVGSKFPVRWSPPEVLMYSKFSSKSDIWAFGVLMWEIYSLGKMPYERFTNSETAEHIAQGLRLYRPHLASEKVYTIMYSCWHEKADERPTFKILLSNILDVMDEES
By IC50 is commonly meant the concentration that inhibits the measured activity by half. As for `Cc1c(NC(=O)c2ccc(C(C)(C)C)cc2)cc(F)cc1-c1ncnc2[nH]c(C3=CCSCC3)cc12`, inhibition was half-maximal at 94 nM (IC50).

Another assay has as its target T1, Tyrosine-protein kinase BTK. Nature of the assay: Biochemical Enzyme Assay: The inhibitory activity of the present compounds against Btk was assessed in a biochemical enzyme assay. Assay plates in 384 well format were prepared with 8-point serial dilutions for the test compounds on a Thermo CatX workstation equipped with a Innovadyne Nanodrop Express. The assay plates were prepared by addition of 50 nl per well of compound solution in 90% DMSO. The kinase reactions were started by stepwise addition of 4.5 ul per well of peptide/ATP-solution (4 uM FITC-Ahx-[…]-NH2, 164 uM ATP) in kinase buffer (50 mM HEPES, pH 7.5, 1 mM DTT, 0.02% Tween20, 0.02% BSA, 0.6% DMSO, 10 mM beta-glycerophosphate, and 10 uM sodium orthovanadate, 18 mM MgCl2, 1 mM MnCl2) and 4.5 ul per well of enzyme solution (6.4 nM full-length human recombinant BTK) in kinase buffer. Kinase reactions were incubated at 30° C. for 60 minutes and subsequently terminated by addition of 16 ul per well of stop solution (100 mM HEPES pH 7.5, 5% DMSO, 0.1% Caliper coating reagent, 10 mM EDTA, and 0.015% Brij35). Kinase reactions were analyzed on a Caliper LC3000 workstation by separating phosphorylated and unphosphorylated peptides and kinase activities were calculated from the amounts of newly formed phospho-peptide. Inhibition data were calculated by comparison to control reactions without enzyme (100% inhibition) and without inhibitors (0% inhibition).
With `Cc1c(NC(=O)c2ccc(C(C)(C)C)cc2)cc(F)cc1-c1ncnc2[nH]c(C3=CCC4(CC3)OCCO4)cc12`, the IC50 was 110 nM.

Take `Cc1c(NC(=O)c2ccc(C(C)(C)O)cc2F)cc(F)cc1-c1ncnc2[nH]c(C3=CCN(C(=O)N(C)C)CC3)cc12`: the IC50 is 13 nM.

Consider `Cc1c(NC(=O)c2ccc(C(C)(C)C)cc2)cc(F)cc1-c1ncnc2[nH]c(C3=CCSCC3)cc12`, for which the 50% inhibitory concentration (IC50) was 23 nM.

With `C=C(C)c1ccc(C(=O)Nc2cc(F)cc(-c3ncnc4[nH]c(C5=CCN(C(=O)N(C)C)CC5)cc34)c2C)cc1`, the IC50 is 3 nM.

For the compound `Cc1c(NC(=O)c2ccc(C3CC3)cc2)cc(F)cc1-c1ncnc2[nH]c(C3=CCN(C(=O)CC#N)CC3)cc12`, the IC50 was 4 nM.

The values above are taken from ChEMBL document CHEMBL3886469, “Pyrrolo pyrimidine derivatives” (2016).
